Test results published in ChEMBL document CHEMBL4330132, “5-Keto-3-cyano-2,4-diaminothiophenes as selective maternal embryonic leucine zipper kinase inhibitors” (Bioorg Med Chem Lett, 2019).

Tests used:
[1] = molecular target: Maternal embryonic leucine zipper kinase (Homo sapiens, UniProt Q14680); assay: Inhibition of recombinant human MELK expressed in Escherichia coli using ZIPtide as substrate measured after 0.5 hrs by ADP-Glo assay
[2] = tested on: Tyrosine-protein kinase ABL1 (Homo sapiens), P00519 [H396P]; assay: Binding affinity to human non-phosphorylated ABL1 H396P mutant (S229 to K512 residues) expressed in mammalian expression system assessed as residual binding level at 1 uM by Kinomescan method relative to control
[3] = molecular target: Aurora kinase B (Homo sapiens) (UniProt Q96GD4); assay: Binding affinity to wild-type human partial length AURKB (D25 to A303 residues) expressed in mammalian expression system assessed as residual binding level at 1 uM by Kinomescan method relative to control
[4] = molecular target: Calcium/calmodulin-dependent protein kinase type IV (Homo sapiens) (UniProt Q16566); assay: Binding affinity to wild-type human partial length CAMK4 (A22 to A322 residues) expressed in bacterial expression system assessed as residual binding level at 1 uM by Kinomescan method relative to control
[5] = molecular target: Ephrin type-B receptor 6 (Homo sapiens) (UniProt O15197); assay: Binding affinity to wild-type human partial length EPHB6 (Q634 to P948 residues) expressed in mammalian expression system assessed as residual binding level at 1 uM by Kinomescan method relative to control
[6] = molecular target: Receptor tyrosine-protein kinase erbB-3 (Homo sapiens) (UniProt P21860); assay: Binding affinity to wild-type human partial length ERBB3 (G684 to A987 residues) expressed in mammalian expression system assessed as residual binding level at 1 uM by Kinomescan method relative to control
[7] = molecular target: Mitogen-activated protein kinase 3 (Homo sapiens) (UniProt P27361); assay: Binding affinity to wild-type human full length ERK1 (M1 to P379 residues) expressed in bacterial expression system assessed as residual binding level at 1 uM by Kinomescan method relative to control
[8] = tested on: Receptor-type tyrosine-protein kinase FLT3 (Homo sapiens), P36888 [D835H]; assay: Binding affinity to human partial length FLT3 D835H mutant (V592 to Y969 residues) expressed in bacterial expression system assessed as residual binding level at 1 uM by Kinomescan method relative to control
[9] = tested on: Receptor-type tyrosine-protein kinase FLT3 (Homo sapiens), P36888 [N841I]; assay: Binding affinity to human partial length FLT3 N841I mutant (V592 to Y969 residues) expressed in bacterial expression system assessed as residual binding level at 1 uM by Kinomescan method relative to control
[10] = molecular target: Insulin receptor (Homo sapiens) (UniProt P06213); assay: Binding affinity to wild-type human partial length INSR (P997 to E1318 residues) expressed in mammalian expression system assessed as residual binding level at 1 uM by Kinomescan method relative to control
[11] = molecular target: Leucine-rich repeat serine/threonine-protein kinase 2 (Homo sapiens) (UniProt Q5S007); assay: Binding affinity to wild-type human partial length LRRK2 (H970 to E2527 residues) expressed in mammalian expression system assessed as residual binding level at 1 uM by Kinomescan method relative to control
[12] = molecular target: Microtubule-associated serine/threonine-protein kinase 1 (Homo sapiens) (UniProt Q9Y2H9); assay: Binding affinity to wild-type human partial length MAST1 (S346 to V730 residues) expressed in mammalian expression system assessed as residual binding level at 1 uM by Kinomescan method relative to control
[13] = molecular target: Myosin light chain kinase 2, skeletal/cardiac muscle (Homo sapiens) (UniProt Q9H1R3); assay: Binding affinity to wild-type human partial length MYLK2 (D258 to K570 residues) expressed in bacterial expression system assessed as residual binding level at 1 uM by Kinomescan method relative to control
[14] = molecular target: Serine/threonine-protein kinase Nek2 (Homo sapiens) (UniProt P51955); assay: Binding affinity to wild-type human partial length NEK2 (M1 to K309 residues) expressed in bacterial expression system assessed as residual binding level at 1 uM by Kinomescan method relative to control
[15] = molecular target: 3-phosphoinositide-dependent protein kinase 1 (Homo sapiens) (UniProt O15530); assay: Binding affinity to wild-type human full length PDPK1 (M1 to Q556 residues) expressed in bacterial expression system assessed as residual binding level at 1 uM by Kinomescan method relative to control
[16] = molecular target: Phosphatidylinositol 3-kinase C2 domain-containing subunit gamma (Homo sapiens) (UniProt O75747); assay: Binding affinity to wild-type human partial length PIK3C2G (M1 to I1446 residues) expressed in mammalian expression system assessed as residual binding level at 1 uM by Kinomescan method relative to control
[17] = molecular target: Serine/threonine-protein kinase PknB (Mycobacterium tuberculosis) (UniProt P9WI81); assay: Binding affinity to wild-type Mycobacterium tuberculosis H37Rv partial length PKNB (M1 to G279 residues) expressed in mammalian expression system assessed as residual binding level at 1 uM by Kinomescan method relative to control
[18] = molecular target: cGMP-dependent protein kinase 2 (Homo sapiens) (UniProt Q13237); assay: Binding affinity to wild-type human partial length PRKG2 (S422 to F762 residues) expressed in mammalian expression system assessed as residual binding level at 1 uM by Kinomescan method relative to control
[19] = molecular target: Serine/threonine-protein kinase PRP4 homolog (Homo sapiens) (UniProt Q13523); assay: Binding affinity to wild-type human partial length PRP4 (D657 to I1007 residues) expressed in bacterial expression system assessed as residual binding level at 1 uM by Kinomescan method relative to control
[20] = molecular target: Ribosomal protein S6 kinase alpha-4 (Homo sapiens) (UniProt O75676); assay: Binding affinity to wild-type human partial length N-terminal RPS6KA4 kinase domain 1 expressed in bacterial expression system assessed as residual binding level at 1 uM by Kinomescan method relative to control
[21] = molecular target: Ribosomal protein S6 kinase alpha-5 (Homo sapiens) (UniProt O75582); assay: Binding affinity to wild-type human partial length C-terminal RPS6KA5 kinase domain 2 (V390 to T718 residues) expressed in bacterial expression system assessed as residual binding level at 1 uM by Kinomescan method relative to control
[22] = molecular target: Ribosomal protein S6 kinase alpha-2 (Homo sapiens) (UniProt Q15349); assay: Binding affinity to wild-type human partial length C-terminal RSK3 kinase domain 2 (V403 to K700 residues) expressed in bacterial expression system assessed as residual binding level at 1 uM by Kinomescan method relative to control
[23] = molecular target: Serine/threonine-protein kinase SIK1 (Homo sapiens) (UniProt P57059); assay: Binding affinity to wild-type human partial length SIK (M1 to Y304 residues) expressed in bacterial expression system assessed as residual binding level at 1 uM by Kinomescan method relative to control
[24] = molecular target: Serine/threonine-protein kinase TNNI3K (Homo sapiens) (UniProt Q59H18); assay: Binding affinity to wild-type human full length TNNI3K (M1 to S835 residues) expressed in bacterial expression system assessed as residual binding level at 1 uM by Kinomescan method relative to control
Chain of Serine/threonine-protein kinase TNNI3K (Homo sapiens) (Q59H18 whole entry, the tested form may be a part): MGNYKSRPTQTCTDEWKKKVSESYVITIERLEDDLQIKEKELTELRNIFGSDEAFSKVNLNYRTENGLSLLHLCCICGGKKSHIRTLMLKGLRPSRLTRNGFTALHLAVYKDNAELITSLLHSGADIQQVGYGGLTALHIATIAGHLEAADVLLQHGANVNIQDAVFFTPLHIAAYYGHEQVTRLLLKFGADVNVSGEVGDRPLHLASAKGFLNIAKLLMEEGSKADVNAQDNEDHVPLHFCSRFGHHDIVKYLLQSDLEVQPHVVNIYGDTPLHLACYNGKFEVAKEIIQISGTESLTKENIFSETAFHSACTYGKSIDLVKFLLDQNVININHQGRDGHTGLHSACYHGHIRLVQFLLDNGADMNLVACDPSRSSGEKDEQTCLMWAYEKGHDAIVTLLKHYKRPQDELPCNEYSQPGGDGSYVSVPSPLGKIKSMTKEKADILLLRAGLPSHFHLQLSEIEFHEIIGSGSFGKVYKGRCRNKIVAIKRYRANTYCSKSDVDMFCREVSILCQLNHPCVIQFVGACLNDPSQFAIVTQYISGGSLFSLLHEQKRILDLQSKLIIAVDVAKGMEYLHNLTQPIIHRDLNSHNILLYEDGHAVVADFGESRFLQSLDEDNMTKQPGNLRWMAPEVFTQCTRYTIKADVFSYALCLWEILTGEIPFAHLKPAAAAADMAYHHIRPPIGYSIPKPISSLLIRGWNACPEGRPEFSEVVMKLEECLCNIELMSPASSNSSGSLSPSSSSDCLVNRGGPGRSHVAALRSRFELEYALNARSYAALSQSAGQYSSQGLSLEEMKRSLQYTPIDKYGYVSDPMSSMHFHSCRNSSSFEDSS

Chain of Ribosomal protein S6 kinase alpha-4 (Homo sapiens) (O75676 whole entry, looked up, the tested form may be a part): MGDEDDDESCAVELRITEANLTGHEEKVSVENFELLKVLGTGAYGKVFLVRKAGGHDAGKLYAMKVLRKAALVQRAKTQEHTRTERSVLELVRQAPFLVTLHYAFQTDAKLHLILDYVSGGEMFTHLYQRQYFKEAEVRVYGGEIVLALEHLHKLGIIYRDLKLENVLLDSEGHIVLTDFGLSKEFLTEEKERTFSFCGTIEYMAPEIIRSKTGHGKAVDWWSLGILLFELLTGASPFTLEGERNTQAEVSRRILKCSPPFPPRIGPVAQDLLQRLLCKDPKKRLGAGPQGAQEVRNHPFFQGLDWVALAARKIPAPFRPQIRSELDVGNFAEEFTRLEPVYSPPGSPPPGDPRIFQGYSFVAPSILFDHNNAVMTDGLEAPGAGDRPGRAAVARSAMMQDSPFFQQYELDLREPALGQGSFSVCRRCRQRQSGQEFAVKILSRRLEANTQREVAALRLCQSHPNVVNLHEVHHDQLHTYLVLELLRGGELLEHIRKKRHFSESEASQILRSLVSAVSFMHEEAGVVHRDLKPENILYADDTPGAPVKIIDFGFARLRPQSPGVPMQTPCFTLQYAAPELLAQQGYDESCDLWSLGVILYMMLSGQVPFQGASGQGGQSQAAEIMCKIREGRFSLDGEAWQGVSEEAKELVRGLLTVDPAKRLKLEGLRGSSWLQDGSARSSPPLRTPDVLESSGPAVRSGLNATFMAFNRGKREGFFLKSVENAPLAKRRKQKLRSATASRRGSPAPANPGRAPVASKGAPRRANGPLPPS
Chain of Maternal embryonic leucine zipper kinase (Q14680 whole entry, the tested form may be a part): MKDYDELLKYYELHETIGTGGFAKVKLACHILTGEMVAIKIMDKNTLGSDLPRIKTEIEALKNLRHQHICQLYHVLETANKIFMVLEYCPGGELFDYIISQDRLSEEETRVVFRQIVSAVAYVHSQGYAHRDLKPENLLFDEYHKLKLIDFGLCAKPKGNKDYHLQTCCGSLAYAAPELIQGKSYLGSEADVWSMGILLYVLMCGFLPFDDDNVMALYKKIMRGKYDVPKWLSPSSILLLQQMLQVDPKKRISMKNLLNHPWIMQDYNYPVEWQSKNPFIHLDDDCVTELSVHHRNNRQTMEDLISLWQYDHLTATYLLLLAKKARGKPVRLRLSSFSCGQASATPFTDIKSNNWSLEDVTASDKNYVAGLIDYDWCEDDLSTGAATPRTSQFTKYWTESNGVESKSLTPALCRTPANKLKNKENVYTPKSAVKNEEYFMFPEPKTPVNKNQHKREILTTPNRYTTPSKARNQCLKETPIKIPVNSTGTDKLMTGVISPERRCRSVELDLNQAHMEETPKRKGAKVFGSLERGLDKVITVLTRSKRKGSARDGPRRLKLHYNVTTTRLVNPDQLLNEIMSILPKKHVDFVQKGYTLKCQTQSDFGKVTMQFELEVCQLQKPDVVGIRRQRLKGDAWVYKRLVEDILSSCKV
Chain of Myosin light chain kinase 2, skeletal/cardiac muscle (Homo sapiens) (Q9H1R3 whole entry, the tested form may be a part): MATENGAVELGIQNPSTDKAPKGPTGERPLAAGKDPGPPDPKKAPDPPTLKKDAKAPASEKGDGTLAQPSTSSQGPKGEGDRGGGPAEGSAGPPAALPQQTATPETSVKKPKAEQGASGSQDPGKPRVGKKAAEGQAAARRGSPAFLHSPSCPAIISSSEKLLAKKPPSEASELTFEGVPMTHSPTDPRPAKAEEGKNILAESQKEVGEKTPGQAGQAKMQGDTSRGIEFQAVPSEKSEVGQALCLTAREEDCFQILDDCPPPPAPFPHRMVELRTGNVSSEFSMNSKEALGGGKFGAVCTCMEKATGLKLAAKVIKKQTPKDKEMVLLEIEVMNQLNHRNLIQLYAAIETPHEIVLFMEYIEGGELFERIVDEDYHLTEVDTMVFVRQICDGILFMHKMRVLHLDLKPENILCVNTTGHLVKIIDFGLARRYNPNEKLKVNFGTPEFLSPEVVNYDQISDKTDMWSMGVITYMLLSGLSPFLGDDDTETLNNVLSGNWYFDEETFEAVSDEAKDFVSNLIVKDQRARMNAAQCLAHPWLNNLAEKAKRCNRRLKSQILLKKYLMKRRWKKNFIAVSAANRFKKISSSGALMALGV
Chain of Serine/threonine-protein kinase PRP4 homolog (Homo sapiens) (Q13523 whole entry, the tested form may be a part): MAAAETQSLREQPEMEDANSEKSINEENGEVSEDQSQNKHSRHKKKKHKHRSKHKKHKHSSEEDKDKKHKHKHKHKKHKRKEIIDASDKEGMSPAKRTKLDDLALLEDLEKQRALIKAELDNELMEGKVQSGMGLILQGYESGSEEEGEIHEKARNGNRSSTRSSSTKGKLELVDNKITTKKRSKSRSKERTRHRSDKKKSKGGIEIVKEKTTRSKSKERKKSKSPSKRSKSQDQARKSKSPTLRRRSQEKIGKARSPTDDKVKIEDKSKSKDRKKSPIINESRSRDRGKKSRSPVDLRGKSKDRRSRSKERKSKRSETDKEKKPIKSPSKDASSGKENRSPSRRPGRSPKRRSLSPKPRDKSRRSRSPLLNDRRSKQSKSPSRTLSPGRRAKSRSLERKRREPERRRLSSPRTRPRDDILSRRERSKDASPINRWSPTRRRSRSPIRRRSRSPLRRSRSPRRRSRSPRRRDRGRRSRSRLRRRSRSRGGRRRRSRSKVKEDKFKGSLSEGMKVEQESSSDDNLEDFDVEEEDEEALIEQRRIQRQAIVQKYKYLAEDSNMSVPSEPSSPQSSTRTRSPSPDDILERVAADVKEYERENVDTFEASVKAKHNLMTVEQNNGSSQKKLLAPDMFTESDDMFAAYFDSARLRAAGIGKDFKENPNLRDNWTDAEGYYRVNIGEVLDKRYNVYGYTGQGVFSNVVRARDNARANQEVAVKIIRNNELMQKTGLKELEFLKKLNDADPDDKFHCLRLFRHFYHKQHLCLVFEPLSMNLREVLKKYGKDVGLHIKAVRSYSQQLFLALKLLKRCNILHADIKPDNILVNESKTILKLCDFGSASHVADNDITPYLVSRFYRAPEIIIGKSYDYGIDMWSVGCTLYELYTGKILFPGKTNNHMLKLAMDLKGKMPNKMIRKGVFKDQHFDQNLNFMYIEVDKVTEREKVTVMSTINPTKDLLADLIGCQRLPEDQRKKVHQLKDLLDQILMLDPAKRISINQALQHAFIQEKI
Chain of 3-phosphoinositide-dependent protein kinase 1 (Homo sapiens) (O15530 whole entry, the tested form may be a part): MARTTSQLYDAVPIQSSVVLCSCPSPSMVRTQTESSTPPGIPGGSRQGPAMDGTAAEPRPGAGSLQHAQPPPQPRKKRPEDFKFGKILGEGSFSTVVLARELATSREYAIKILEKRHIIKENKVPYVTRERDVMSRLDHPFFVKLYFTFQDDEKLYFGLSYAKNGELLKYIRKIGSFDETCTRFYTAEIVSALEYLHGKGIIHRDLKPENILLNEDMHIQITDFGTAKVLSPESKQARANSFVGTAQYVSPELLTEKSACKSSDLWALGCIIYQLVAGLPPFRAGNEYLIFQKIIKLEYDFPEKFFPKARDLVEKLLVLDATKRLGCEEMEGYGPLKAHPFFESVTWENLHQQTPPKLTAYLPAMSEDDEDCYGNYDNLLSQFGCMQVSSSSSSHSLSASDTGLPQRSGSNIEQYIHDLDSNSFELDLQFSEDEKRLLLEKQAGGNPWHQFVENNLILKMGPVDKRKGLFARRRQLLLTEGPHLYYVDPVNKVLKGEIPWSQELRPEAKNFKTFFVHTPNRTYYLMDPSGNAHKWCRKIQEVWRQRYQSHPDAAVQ
Chain of Serine/threonine-protein kinase PknB (Mycobacterium tuberculosis) (P9WI81 whole entry, the tested form may be a part): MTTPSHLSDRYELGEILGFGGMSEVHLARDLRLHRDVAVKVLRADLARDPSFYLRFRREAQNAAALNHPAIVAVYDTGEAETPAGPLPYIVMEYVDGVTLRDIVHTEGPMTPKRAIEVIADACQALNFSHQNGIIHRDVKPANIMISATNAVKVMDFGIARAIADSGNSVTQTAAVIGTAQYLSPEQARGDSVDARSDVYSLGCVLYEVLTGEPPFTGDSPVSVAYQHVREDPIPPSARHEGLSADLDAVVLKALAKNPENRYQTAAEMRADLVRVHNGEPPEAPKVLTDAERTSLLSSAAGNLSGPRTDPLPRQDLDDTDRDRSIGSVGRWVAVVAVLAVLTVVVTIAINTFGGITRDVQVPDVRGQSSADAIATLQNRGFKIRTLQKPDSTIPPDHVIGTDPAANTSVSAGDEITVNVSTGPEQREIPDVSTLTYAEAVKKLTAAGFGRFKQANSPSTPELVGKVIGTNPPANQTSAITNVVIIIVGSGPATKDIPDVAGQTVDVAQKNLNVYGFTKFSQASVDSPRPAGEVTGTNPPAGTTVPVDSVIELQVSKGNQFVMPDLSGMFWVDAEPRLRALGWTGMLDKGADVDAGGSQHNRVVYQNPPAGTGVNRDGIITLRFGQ

## CC(C)Nc1sc(C(=O)c2ccc(Cl)s2)c(N)c1C#N
[1]
  IC50: 192 nM
[2]
  Activity: 100%
[3]
  Activity: 100%
[4]
  Activity: 100%
[5]
  Activity: 100%
[6]
  Activity: 75%
[7]
  Activity: 95%
[8]
  Activity: 60%
[9]
  Activity: 95%
[10]
  Activity: 80%
[11]
  Activity: 81%
[12]
  Activity: 100%
[13]
  Activity: 81%
[14]
  Activity: 85%
[15]
  Activity: 84%
[16]
  Activity: 84%
[17]
  Activity: 95%
[18]
  Activity: 100%
[19]
  Activity: 100%
[20]
  Activity: 100%
[21]
  Activity: 77%
[22]
  Activity: 98%
[23]
  Activity: 100%
[24]
  Activity: 75%
